Assay [1] deals with T1, Full length wild-type cereblon CRBN (Homo sapiens, UniProt Q96SW2).
T1 construct: Full length wild-type cereblon CRBN (80.0 nM, 10 μL) was incubated in assay buffer
Kind of assay: Fluorescence polarization (FP) assay indicating cereblon binding. The source says:
Protocol for Fluorescent Polarization Assay
Compound activity was monitored in a fluorescence polarization (FP) homogeneous assay using 1-[5-({2-[2-(2-{[2-(2,6-dioxopiperidin-3-yl)-1,3-dioxo-2,3-dihydro-1H-isoindol-4-yl]oxy}acetamido)ethoxy]ethyl}carbamoyl)pentyl]-3,3-dimethyl-2-[(1E,3E)-5-[(2E)-1,3,3-trimethyl-5-sulfo-2,3-dihydro-1H-indol-2-ylidene]penta-1,3-dien-1-yl]-3H-indol-1-ium-5-sulfonate as a fluorescent probe. Unless otherwise stated, all reagents were purchased from Sigma Aldrich. Enzymatic reactions were conducted in Perkin-Elmer Black 384 well ProxiPlate Plus (catalogue no. 6008269) in 10 μL total volume. Full length wild-type cereblon CRBN (80.0 nM, 10 μL) was incubated in assay buffer containing 20 mM HEPES (pH 8.0), […], 0.5 mM TCEP and 0.05% Tween 20 in the presence or absence of compound (300 nL). Inhibitors were stored as 10 mM DMSO stocks in an inert environment (low humidity, dark, low oxygen, room temperature) using the Storage Pod System. Compounds and DMSO were dispensed using the Echo E5XX (Labcyte Inc. USA) to give concentrations from 300 to 0.937 or 3000 to 9.3 nM in a 12 data point curve. […] Following incubation at room temperature for 30 min, the assay was initiated by dispensing the probe to a final concentration of 5 nM (2.5 nL of a 20 μM stock) using the Echo E5XX. FP was measured after a period of 12 hours using a Pherastar plate reader (BMG Labtech, Germany) exciting at 590 nm and measuring the amount of parallel and perpendicular light at 675 nm. The FP signal was subsequently normalized to the no-compound control (i.e., DMSO). Analysis and IC50 values were derived using Dotmatics (Dotmatics UK) software.
For orientation: Polarisation of emitted light reports the rotation of a fluorescent probe.

For a further assay, the target named is GSPT1 (Homo sapiens, UniProt P15170+Q96SW2). Kind of assay: Immunofluorescence assay for GSPT1 degradation in CAL-Si cells. In kind it is cell-based. More on the design: CAL-Si cells were purchased from DSMZ (cat. Number ACC302); host or cells: CAL-Si (CAL-51) cells. Conditions: 6 hours treatment. The protocol: The representative compounds were tested in an immunofluorescence assay for their activity to bind to degrade GSPT1. CAL-Si cells were purchased from DSMZ (cat. Number ACC302), sub-cultured in 90% Dulbecco's MEM (4.5 g/L glucose, Gibco 11965)+10% […] inactivated FBS (BioConcept, 2-01F136I) and incubated at 37° C., 5% CO2. For the assay, imaging microtiterplate Cell Carrier 96 Ultra (Perkin Elmer 6055302) were pre-coated with Fibronectin (Sigma F085, 30 μl at 0.2 μg/ml) in PBS (100 μl, Gibco 14190) for 45 min at room temperature, rinsed with PBS and CAL-Si cells (30K cells/well) were plated and let to adhere overnight. Cells were treated with compounds typically using a serial dilution ranging from 30 μM to 0.1 nM for 6 hours. Compounds were stored at 10 mM DMSO stocks. Vehicle (DMSO), positive (CC-885, 10 μM) and rescue controls (positive control plus 0.2 μM bortezomib) were also included at this stage. Cells were subsequently rinsed with PBS and fixed in 10% Formalin solution (50 μl, Sigma HT5011)) for 20 mins at room temperature. Following three consecutive PBS washes (100 μl), cells were permeabilized in 0.1% Triton X-100 in PBS (Sigma 93443, 50 μl) for 15 mins at room temperature. Following three further PBS washes, […] blocking buffer (1% BSA, Sigma A4503, in PBS) was added for 45 min for signal-to-noise reduction.
Primary antibody (human GSPT1, Sigma HPA052488) was diluted in blocking buffer (dil.1/300, 35 μl/well) and incubated with the cells overnight at 4° C. After three PBS washes, Alexa-fluor 488 coupled secondary antibodies (Invitrogen, A32731, dil.1/1000), Alexa-fluor 647-Phalloidin (Invitrogen, A22287, dil.1/200) and DAPI (Thermo, #62248, dil.1/1000) were diluted in blocking buffer and incubated with the samples for 2 hours at room temperature. After three final PBS washes, samples were conserved in […] PBS in the dark, until measurement. Image acquisition was performed on the Operetta High-Content Imager (Perkin-Elmer). Fluorescence intensity of Alexa-Fluor 488 (GSPT1), Alexa-Fluor 647 (Actin) and DAPI (Nucleus) were measured. For the determination of GSPT1 DC50 values, a custom algorithm implemented in the PerkinElmer image analysis software Harmony-Acapella® was developed. After user-defined setting of adjustment parameters, the analysis was run identically without human intervention for all image fields. DAPI staining of the nuclei was used to determine the location of cells using standard nuclei detection modules. Segmentation artifacts were removed by threshold-based filters for area, roundness and intensity. The outline of the cells was determined analogously from the sum of the normalized, smoothed DAPI and Actin channel, starting from each nucleus.
The Alexa-Fluor 488 (GSPT1) signal intensity in each cell was finally measured, in order to obtain a Mean intensity per cell. GSPT1 degradation (DC50) was calculated after normalization to controls and data import in CDD vault Database, using non-linear regression.

The mark [2] stands for this setting: cereblon binding, CRBN 80.0 nM, probe 5 nM, FP read after 12 hours, read-out: rFP IC50.
Where [3] appears, read: read-out: Code: activity for GSPT1 degradation (DC50).
Where [4] appears, read: fluorescence polarization assay, read-out: IC50 value (cereblon binding).
[5] abbreviates: GSPT1 degradation, read-out: DC50.

Where two headings read alike, the source gives them in different places. Some results are limits rather than exact numbers.

T1 sequence (Q96SW2 whole entry): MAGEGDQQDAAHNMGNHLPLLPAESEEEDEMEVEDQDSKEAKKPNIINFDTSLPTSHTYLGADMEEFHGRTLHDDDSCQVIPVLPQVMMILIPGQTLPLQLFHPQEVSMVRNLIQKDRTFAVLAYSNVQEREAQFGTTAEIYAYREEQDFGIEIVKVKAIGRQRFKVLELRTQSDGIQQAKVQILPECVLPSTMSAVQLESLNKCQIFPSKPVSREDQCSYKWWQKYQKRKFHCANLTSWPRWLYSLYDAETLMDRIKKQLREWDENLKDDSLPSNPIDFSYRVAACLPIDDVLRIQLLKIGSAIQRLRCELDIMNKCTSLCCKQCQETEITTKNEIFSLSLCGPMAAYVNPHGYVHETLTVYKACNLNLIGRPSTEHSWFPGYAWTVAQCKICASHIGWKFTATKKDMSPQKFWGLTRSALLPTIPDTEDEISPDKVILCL
Sequence of GSPT1 (P15170 whole entry): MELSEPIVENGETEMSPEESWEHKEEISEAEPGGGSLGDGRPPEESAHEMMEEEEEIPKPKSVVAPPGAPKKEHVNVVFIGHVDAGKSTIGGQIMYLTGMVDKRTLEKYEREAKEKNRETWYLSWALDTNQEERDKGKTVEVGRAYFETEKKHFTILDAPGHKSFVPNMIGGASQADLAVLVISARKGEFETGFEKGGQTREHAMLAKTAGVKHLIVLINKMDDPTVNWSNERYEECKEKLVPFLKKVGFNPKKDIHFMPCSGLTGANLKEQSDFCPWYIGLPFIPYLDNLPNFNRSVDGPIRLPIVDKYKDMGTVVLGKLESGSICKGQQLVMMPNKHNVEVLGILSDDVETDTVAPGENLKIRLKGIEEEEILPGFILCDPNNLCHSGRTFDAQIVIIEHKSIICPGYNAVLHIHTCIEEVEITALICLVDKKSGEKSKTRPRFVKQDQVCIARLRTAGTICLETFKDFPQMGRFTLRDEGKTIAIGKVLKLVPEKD
Sequence of GSPT1 (Q96SW2 whole entry): as the sequence (Q96SW2 whole entry) above
Sequence of GSPT1 (Q16531 whole entry partner): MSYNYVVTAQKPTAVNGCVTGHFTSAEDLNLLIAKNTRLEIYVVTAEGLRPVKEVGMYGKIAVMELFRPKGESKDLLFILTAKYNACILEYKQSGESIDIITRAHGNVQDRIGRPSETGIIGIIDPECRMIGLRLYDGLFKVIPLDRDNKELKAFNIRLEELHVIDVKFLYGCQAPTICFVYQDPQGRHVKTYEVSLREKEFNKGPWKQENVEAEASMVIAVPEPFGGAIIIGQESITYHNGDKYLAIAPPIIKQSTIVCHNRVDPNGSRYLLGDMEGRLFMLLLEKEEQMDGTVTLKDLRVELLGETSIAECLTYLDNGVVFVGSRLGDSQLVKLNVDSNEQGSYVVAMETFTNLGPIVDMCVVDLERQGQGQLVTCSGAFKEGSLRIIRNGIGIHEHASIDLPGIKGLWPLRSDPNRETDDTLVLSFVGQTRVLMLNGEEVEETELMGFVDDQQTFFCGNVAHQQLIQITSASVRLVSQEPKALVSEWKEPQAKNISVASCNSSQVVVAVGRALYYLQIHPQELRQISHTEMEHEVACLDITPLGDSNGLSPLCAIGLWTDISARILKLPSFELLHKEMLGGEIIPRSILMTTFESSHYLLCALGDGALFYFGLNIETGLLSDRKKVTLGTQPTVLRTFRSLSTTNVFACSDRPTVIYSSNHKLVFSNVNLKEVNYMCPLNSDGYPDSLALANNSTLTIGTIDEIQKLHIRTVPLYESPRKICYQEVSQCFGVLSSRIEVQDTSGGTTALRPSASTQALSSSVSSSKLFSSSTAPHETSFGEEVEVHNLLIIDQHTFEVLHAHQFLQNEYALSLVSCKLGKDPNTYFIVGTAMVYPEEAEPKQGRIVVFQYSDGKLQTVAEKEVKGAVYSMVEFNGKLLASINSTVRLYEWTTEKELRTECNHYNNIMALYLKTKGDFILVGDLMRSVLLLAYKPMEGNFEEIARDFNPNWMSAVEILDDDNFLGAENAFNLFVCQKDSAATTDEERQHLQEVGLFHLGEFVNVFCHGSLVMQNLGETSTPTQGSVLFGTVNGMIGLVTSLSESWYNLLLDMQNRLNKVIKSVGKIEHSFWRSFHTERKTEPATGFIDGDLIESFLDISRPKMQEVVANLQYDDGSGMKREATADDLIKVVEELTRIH

For `CCc1cc(NC(=O)CCc2ccc3c(c2)C(=O)N(C2CCC(=O)NC2=O)C3)sn1` (stereo not drawn) [Compound 65], in assay [1] (setting [2]), the IC50 was greater than 1.7 µM. Also, the DC50 on GSPT1 (setting [3]) lay in the range of 0.03 to 0.3 µM.
Consider `CC(F)(F)c1ccc(NC(=O)CCc2ccc3c(c2)C(=O)N(C2CCC(=O)NC2=O)C3)cc1` (stereo not drawn) [Compound 63], for which the results for the IC50 in assay [1] (setting [2]) and in assay [1] (setting [4]) were no more than 0.5 µM and less than 1.1 µM, respectively. The DC50 at GSPT1 (setting [3]) is 0.03 to 0.3 µM.
In the case of `O=C1CCC(N2Cc3ccc(CCC(=O)Nc4cc(Cl)cc(OC(F)F)c4)cc3C2=O)C(=O)N1` (stereo not drawn) [Compound 23], the IC50 in assay [1] (setting [2]) is greater than 1.7 µM. The results for the DC50 on GSPT1 (setting [3]) and at GSPT1 (setting [5]) were no more than 0.03 µM and 0.027 µM, respectively.
As to `O=C1CCC(N2Cc3ccc(CCC(=O)Nc4ccc5c(c4)OCC5)cc3C2=O)C(=O)N1` (stereo not drawn) [Compound 26], the IC50 is 0.5 to 1.1 µM in assay [1] (setting [2]) and less than 1.1 µM in assay [1] (setting [4]). Also, the DC50 on GSPT1 (setting [3]) was greater than 0.3 µM.
As for `CC(C)CCNC(=O)CCc1ccc2c(c1)C(=O)N(C1CCC(=O)NC1=O)C2` (stereo not drawn) [Compound 6], in assay [1] (setting [2]), the concentration for half-maximal inhibition (IC50) is greater than 1.7 µM. In addition, the DC50 on GSPT1 (setting [3]) was greater than 0.3 µM.
Regarding `CN1CCC(Oc2cc(Cl)cc(NC(=O)CCc3ccc4c(c3)C(=O)N(C3CCC(=O)NC3=O)C4)c2)C1` (stereo not drawn) [Compound 31], the figures for the IC50 in assay [1] (setting [2]) and in assay [1] (setting [4]) were 0.5 to 1.1 µM and less than 1.1 µM, respectively. The DC50 at GSPT1 (setting [3]) lay within 0.03 to 0.3 µM.
Turning to `Cc1c(Cl)cc(NC(=O)CNc2ccc3c(c2)C(=O)N(C2CCC(=O)NC2=O)C3)cc1CN1CCOCC1` (stereo not drawn) [Compound 67, N-(3-chloro-4-methyl-5-(morpholinomethyl)phenyl)-2-((2-(2,6-dioxopiperidin-3-yl)-3-oxoisoindolin-5-yl)amino)acetamide], in assay [1] (setting [2]), the IC50 was no more than 0.5 µM. Further, the DC50 at GSPT1 (setting [3]) is greater than 0.3 µM.
Take `Cc1ncc(NC(=O)CCc2ccc3c(c2)C(=O)N(C2CCC(=O)NC2=O)C3)cc1Cl` (stereo not drawn) [Compound 3]: the results for the IC50 in assay [1] (setting [2]) and in assay [1] (setting [4]) were no more than 0.5 µM and less than 1.1 µM, respectively. The DC50 on GSPT1 (setting [3]) fell in the range of 0.03 to 0.3 µM.
Taken in the same sequence, the figures for `O=C1CCC(N2Cc3ccc(CCC(=O)NC4CCCCC4)cc3C2=O)C(=O)N1` (stereo not drawn) [Compound 4] were 0.5 to 1.1 µM, less than 1.1 µM and greater than 0.3 µM.
`O=C1CCC(N2Cc3ccc(CCC(=O)N4CCN(c5ccccc5)CC4)cc3C2=O)C(=O)N1` (stereo not drawn) [Compound 27]: in assay [1] (setting [2]), the IC50 was greater than 1.7 µM. In addition, the DC50 on GSPT1 (setting [3]) is greater than 0.3 µM.
As for `O=C1CCC(N2Cc3ccc(CCC(=O)Nc4ccc(F)c(Cl)c4)cc3C2=O)C(=O)N1` (stereo not drawn) [Compound 8], the concentration for half-maximal inhibition (IC50) is 0.5 to 1.1 µM in assay [1] (setting [2]) and less than 1.1 µM in assay [1] (setting [4]). For the same molecule, the DC50 at GSPT1 (setting [3]) was 0.03 to 0.3 µM.
Turning to `O=C1CCC(N2Cc3ccc(CCC(=O)Nc4ccc(F)c(OC(F)(F)F)c4)cc3C2=O)C(=O)N1` (stereo not drawn) [Compound 60], the half-maximal inhibitory concentration (IC50) in assay [1] (setting [2]) is greater than 1.7 µM. The DC50 at GSPT1 (setting [3]) is 0.03 to 0.3 µM.
For the molecule `O=C1CCC(N2Cc3ccc(CCC(=O)Nc4cc(F)cc(Cl)c4)cc3C2=O)C(=O)N1` (stereo not drawn) [Compound 18], the IC50 in assay [1] (setting [2]) was greater than 1.7 µM. Moreover, the 50% degradation concentration (DC50) on GSPT1 (setting [3]) was greater than 0.3 µM.
On to `CCc1cc(NC(=O)CCc2ccc3c(c2)C(=O)N(C2CCC(=O)NC2=O)C3)cc(Cl)c1C` (stereo not drawn) [Compound 43], for which the IC50 in assay [1] (setting [2]) was in the range of 1.1 to 1.7 µM. For the same molecule, the results for the DC50 at GSPT1 (setting [3]) and at GSPT1 (setting [5]) were no more than 0.03 µM and 0.026 µM, respectively.
`O=C1CCC(N2Cc3ccc(CCC(=O)Nc4cccc(OC(F)(F)F)c4)cc3C2=O)C(=O)N1` (stereo not drawn) [Compound 5]: the IC50 in assay [1] (setting [2]) was in the range of 1.1 to 1.7 µM. At GSPT1 (setting [3]), the DC50 lay in the range of 0.03 to 0.3 µM.
Consider `Cc1cc(NC(=O)CCc2ccc3c(c2)C(=O)N(C2CCC(=O)NC2=O)C3)cc(C)n1` (stereo not drawn) [Compound 52], for which, in assay [1] (setting [2]), the IC50 was greater than 1.7 µM. For the same molecule, the DC50 at GSPT1 (setting [3]) was greater than 0.3 µM.
For `Cc1c(Cl)cc(NC(=O)CCc2ccc3c(c2)C(=O)N(C2CCC(=O)NC2=O)C3)cc1OCC1CCNC1` (stereo not drawn) [Compound 51], the IC50 in assay [1] (setting [2]) was no more than 0.5 µM; in assay [1] (setting [4]), less than 1.1 µM. For the same molecule, on GSPT1 (setting [3]), the DC50 was greater than 0.3 µM.
Regarding `Cc1ccc(NC(=O)CCc2ccc3c(c2)C(=O)N(C2CCC(=O)NC2=O)C3)cc1OC(F)F` (stereo not drawn) [Compound 29], the IC50 in assay [1] (setting [2]) fell in the range of 1.1 to 1.7 µM. For the same molecule, the DC50 at GSPT1 (setting [3]) is no more than 0.03 µM; at GSPT1 (setting [5]) it was 0.006 µM.
For `O=C1CCC(N2Cc3ccc(CCC(=O)N4CCC(Oc5ccccc5)C4)cc3C2=O)C(=O)N1` (stereo not drawn) [Compound 21], the concentration for half-maximal inhibition (IC50) in assay [1] (setting [2]) was greater than 1.7 µM. For the same molecule, the DC50 at GSPT1 (setting [3]) is greater than 0.3 µM.

A word on the IC50: it is the concentration that gives 50% inhibition. The term DC50 denotes the concentration giving 50% degradation.
